Measured values from the NIST ThermoML archive (doi:10.1021/acs.jced.8b00554).
± gives the expanded uncertainty stated by the source.

Assay: xn = mol fraction of the nth substance listed
Conditions: Liquid, Vibrating tube method

CCCCCCCC [octane] + CCCO
mass density [kg/m3]
Conditions | 313.15 K | 323.15 K
100 kPa, x2 = 0.1631 | 693.18 ± 4.4 | 684.56 ± 4.4
100 kPa, x2 = 0.2111 | 695.76 ± 4.5 | 687.03 ± 4.4
100 kPa, x2 = 0.3158 | 701.99 ± 4.5 | 693.22 ± 4.4
100 kPa, x2 = 0.4411 | 711 ± 4.5 | 702.44 ± 4.5
100 kPa, x2 = 0.7301 | 740.14 ± 4.7 | 731.25 ± 4.7
100 kPa, x2 = 0.8823 | 763.46 ± 4.9 | 754.72 ± 4.8
1000 kPa, x2 = 0.1631 | 694.31 ± 4.5 | –
1000 kPa, x2 = 0.4411 | 712.19 ± 4.6 | –
1000 kPa, x2 = 0.8823 | – | 755.36 ± 4.8
1010 kPa, x2 = 0.2111 | 696.95 ± 4.5 | –
1010 kPa, x2 = 0.3158 | 703.21 ± 4.5 | 694.15 ± 4.5
1010 kPa, x2 = 0.4411 | – | 703 ± 4.5
1010 kPa, x2 = 0.7301 | 741.33 ± 4.8 | 732.1 ± 4.7
1010 kPa, x2 = 0.8823 | 764.37 ± 4.9 | –
1020 kPa, x2 = 0.1631 | – | 685.52 ± 4.4
1020 kPa, x2 = 0.2111 | – | 688.02 ± 4.4
2000 kPa, x2 = 0.4411 | – | 703.99 ± 4.5
2000 kPa, x2 = 0.7301 | 742.25 ± 4.8 | –
2010 kPa, x2 = 0.1631 | 695.26 ± 4.5 | 686.54 ± 4.4
2010 kPa, x2 = 0.2111 | 697.87 ± 4.5 | 689.01 ± 4.4
2010 kPa, x2 = 0.3158 | 704.14 ± 4.5 | 695.16 ± 4.5
2010 kPa, x2 = 0.4411 | 713.12 ± 4.6 | –
2010 kPa, x2 = 0.7301 | – | 733.06 ± 4.7
2010 kPa, x2 = 0.8823 | 765.24 ± 4.9 | –
2020 kPa, x2 = 0.8823 | – | 756.3 ± 4.8
3000 kPa, x2 = 0.2111 | 698.81 ± 4.5 | –
3000 kPa, x2 = 0.4411 | 714.05 ± 4.6 | 704.97 ± 4.5
3000 kPa, x2 = 0.7301 | 743.18 ± 4.8 | –
3010 kPa, x2 = 0.3158 | 705.04 ± 4.5 | 696.14 ± 4.5
3010 kPa, x2 = 0.7301 | – | 734.04 ± 4.7
3010 kPa, x2 = 0.8823 | – | 757.26 ± 4.8
3020 kPa, x2 = 0.1631 | 696.19 ± 4.5 | 687.52 ± 4.4
3020 kPa, x2 = 0.2111 | – | 690 ± 4.4
3020 kPa, x2 = 0.8823 | 766.13 ± 4.9 | –
4000 kPa, x2 = 0.2111 | 699.72 ± 4.5 | –
4000 kPa, x2 = 0.4411 | 714.95 ± 4.6 | –
4010 kPa, x2 = 0.3158 | 705.98 ± 4.5 | –
4010 kPa, x2 = 0.7301 | 744.05 ± 4.8 | 734.99 ± 4.7
4010 kPa, x2 = 0.8823 | – | 758.2 ± 4.9
4020 kPa, x2 = 0.1631 | 697.09 ± 4.5 | 688.52 ± 4.4
4020 kPa, x2 = 0.2111 | – | 691 ± 4.4
4020 kPa, x2 = 0.3158 | – | 697.11 ± 4.5
4020 kPa, x2 = 0.4411 | – | 705.97 ± 4.5
4020 kPa, x2 = 0.8823 | 767 ± 4.9 | –
5000 kPa, x2 = 0.1631 | 698.01 ± 4.5 | –
5000 kPa, x2 = 0.3158 | 706.86 ± 4.5 | –
5000 kPa, x2 = 0.8823 | 767.9 ± 4.9 | –
5010 kPa, x2 = 0.1631 | – | 689.5 ± 4.4
5010 kPa, x2 = 0.2111 | 700.64 ± 4.5 | –
5010 kPa, x2 = 0.7301 | 744.95 ± 4.8 | 735.97 ± 4.7
5020 kPa, x2 = 0.2111 | – | 691.96 ± 4.4
5020 kPa, x2 = 0.3158 | – | 698.1 ± 4.5
5020 kPa, x2 = 0.4411 | 715.86 ± 4.6 | 706.95 ± 4.5
5020 kPa, x2 = 0.8823 | – | 759.13 ± 4.9
6000 kPa, x2 = 0.7301 | – | 736.92 ± 4.7
6010 kPa, x2 = 0.1631 | – | 690.43 ± 4.4
6010 kPa, x2 = 0.2111 | 701.53 ± 4.5 | 692.93 ± 4.4
6010 kPa, x2 = 0.4411 | 716.76 ± 4.6 | 707.91 ± 4.5
6010 kPa, x2 = 0.7301 | 745.83 ± 4.8 | –
6010 kPa, x2 = 0.8823 | 768.74 ± 4.9 | 760.04 ± 4.9
6020 kPa, x2 = 0.1631 | 698.89 ± 4.5 | –
6020 kPa, x2 = 0.3158 | 707.76 ± 4.5 | 699.06 ± 4.5
7000 kPa, x2 = 0.1631 | – | 691.4 ± 4.4
7000 kPa, x2 = 0.3158 | 708.66 ± 4.5 | –
7010 kPa, x2 = 0.2111 | – | 693.87 ± 4.5
7010 kPa, x2 = 0.4411 | – | 708.85 ± 4.5
7010 kPa, x2 = 0.7301 | 746.74 ± 4.8 | 737.85 ± 4.7
7020 kPa, x2 = 0.1631 | 699.79 ± 4.5 | –
7020 kPa, x2 = 0.2111 | 702.4 ± 4.5 | –
7020 kPa, x2 = 0.3158 | – | 700.03 ± 4.5
7020 kPa, x2 = 0.4411 | 717.65 ± 4.6 | –
7020 kPa, x2 = 0.8823 | 769.63 ± 4.9 | 760.95 ± 4.9
8000 kPa, x2 = 0.1631 | 700.66 ± 4.5 | 692.37 ± 4.4
8010 kPa, x2 = 0.3158 | 709.55 ± 4.5 | 700.95 ± 4.5
8010 kPa, x2 = 0.4411 | 718.55 ± 4.6 | 709.8 ± 4.5
8010 kPa, x2 = 0.7301 | 747.6 ± 4.8 | 738.79 ± 4.7
8010 kPa, x2 = 0.8823 | 770.46 ± 4.9 | 761.85 ± 4.9
8020 kPa, x2 = 0.2111 | 703.3 ± 4.5 | 694.84 ± 4.5
9000 kPa, x2 = 0.3158 | 710.41 ± 4.5 | –
9000 kPa, x2 = 0.4411 | 719.39 ± 4.6 | –
9000 kPa, x2 = 0.7301 | 748.46 ± 4.8 | 739.71 ± 4.7
9010 kPa, x2 = 0.1631 | 701.54 ± 4.5 | –
9010 kPa, x2 = 0.4411 | – | 710.74 ± 4.5
9010 kPa, x2 = 0.8823 | – | 762.75 ± 4.9
9020 kPa, x2 = 0.1631 | – | 693.29 ± 4.4
9020 kPa, x2 = 0.2111 | 704.17 ± 4.5 | 695.78 ± 4.5
9020 kPa, x2 = 0.3158 | – | 701.92 ± 4.5
9020 kPa, x2 = 0.8823 | 771.29 ± 4.9 | –
10000 kPa, x2 = 0.1631 | – | 694.22 ± 4.5
10000 kPa, x2 = 0.2111 | 705.02 ± 4.5 | –
10000 kPa, x2 = 0.7301 | – | 740.61 ± 4.7
10010 kPa, x2 = 0.1631 | 702.41 ± 4.5 | –
10010 kPa, x2 = 0.2111 | – | 696.69 ± 4.5
10010 kPa, x2 = 0.4411 | 720.29 ± 4.6 | –
10010 kPa, x2 = 0.7301 | 749.32 ± 4.8 | –
10020 kPa, x2 = 0.3158 | 711.31 ± 4.6 | –
10020 kPa, x2 = 0.8823 | 772.16 ± 5 | –
11000 kPa, x2 = 0.1631 | 703.29 ± 4.5 | –
11000 kPa, x2 = 0.8823 | 772.97 ± 5 | –
11010 kPa, x2 = 0.3158 | 712.17 ± 4.6 | –
11010 kPa, x2 = 0.7301 | 750.16 ± 4.8 | –
11020 kPa, x2 = 0.2111 | 705.91 ± 4.5 | –
11020 kPa, x2 = 0.4411 | 721.14 ± 4.6 | –
12010 kPa, x2 = 0.1631 | 704.11 ± 4.5 | –
12010 kPa, x2 = 0.2111 | 706.77 ± 4.5 | –
12010 kPa, x2 = 0.3158 | 712.99 ± 4.6 | –
12010 kPa, x2 = 0.7301 | 751 ± 4.8 | –
12020 kPa, x2 = 0.4411 | 722 ± 4.6 | –
12020 kPa, x2 = 0.8823 | 773.81 ± 5 | –
13000 kPa, x2 = 0.4411 | 722.85 ± 4.6 | –
13000 kPa, x2 = 0.8823 | 774.61 ± 5 | –
13010 kPa, x2 = 0.1631 | 704.97 ± 4.5 | –
13010 kPa, x2 = 0.3158 | 713.85 ± 4.6 | –
13010 kPa, x2 = 0.7301 | 751.83 ± 4.8 | –
13020 kPa, x2 = 0.2111 | 707.6 ± 4.5 | –
14010 kPa, x2 = 0.3158 | 714.67 ± 4.6 | –
14020 kPa, x2 = 0.1631 | 705.8 ± 4.5 | –
14020 kPa, x2 = 0.2111 | 708.41 ± 4.5 | –
14020 kPa, x2 = 0.4411 | 723.68 ± 4.6 | –
14020 kPa, x2 = 0.7301 | 752.64 ± 4.8 | –
14020 kPa, x2 = 0.8823 | 775.41 ± 5 | –
15000 kPa, x2 = 0.4411 | 724.48 ± 4.6 | –
15010 kPa, x2 = 0.2111 | 709.26 ± 4.5 | –
15010 kPa, x2 = 0.3158 | 715.49 ± 4.6 | –
15010 kPa, x2 = 0.7301 | 753.46 ± 4.8 | –
15010 kPa, x2 = 0.8823 | 776.2 ± 5 | –
15020 kPa, x2 = 0.1631 | 706.63 ± 4.5 | –
16000 kPa, x2 = 0.1631 | 707.41 ± 4.5 | –
16010 kPa, x2 = 0.4411 | 725.31 ± 4.7 | –
16010 kPa, x2 = 0.7301 | 754.27 ± 4.8 | –
16010 kPa, x2 = 0.8823 | 776.98 ± 5 | –
16020 kPa, x2 = 0.2111 | 710.08 ± 4.5 | –
16020 kPa, x2 = 0.3158 | 716.32 ± 4.6 | –
17000 kPa, x2 = 0.8823 | 777.78 ± 5 | –
17020 kPa, x2 = 0.1631 | 708.23 ± 4.5 | –
17020 kPa, x2 = 0.2111 | 710.85 ± 4.6 | –
17020 kPa, x2 = 0.3158 | 717.13 ± 4.6 | –
17020 kPa, x2 = 0.4411 | 726.11 ± 4.7 | –
17020 kPa, x2 = 0.7301 | 755.05 ± 4.8 | –
18000 kPa, x2 = 0.1631 | 709.02 ± 4.5 | –
18000 kPa, x2 = 0.4411 | 726.91 ± 4.7 | –
18010 kPa, x2 = 0.2111 | 711.64 ± 4.6 | –
18010 kPa, x2 = 0.3158 | 717.91 ± 4.6 | –
18010 kPa, x2 = 0.8823 | 778.53 ± 5 | –
18020 kPa, x2 = 0.7301 | 755.85 ± 4.8 | –
19000 kPa, x2 = 0.3158 | 718.69 ± 4.6 | –
19000 kPa, x2 = 0.7301 | 756.62 ± 4.8 | –
19010 kPa, x2 = 0.2111 | 712.43 ± 4.6 | –
19010 kPa, x2 = 0.4411 | 727.68 ± 4.7 | –
19010 kPa, x2 = 0.8823 | 779.29 ± 5 | –
19020 kPa, x2 = 0.1631 | 709.81 ± 4.5 | –
20000 kPa, x2 = 0.2111 | 713.22 ± 4.6 | –
20000 kPa, x2 = 0.4411 | 728.45 ± 4.7 | –
20010 kPa, x2 = 0.1631 | 710.59 ± 4.6 | –
20010 kPa, x2 = 0.3158 | 719.47 ± 4.6 | –
20010 kPa, x2 = 0.7301 | 757.39 ± 4.9 | –
20020 kPa, x2 = 0.8823 | 780.06 ± 5 | –
